Reference: patent publication US12528783B2, “PqsR inverse agonists” (priority 2020, dated 2026)

Columns and labels:
[1] = tested on: signal molecule production (HHQ, PQS); settings: at 15 μM; cited from earlier work
[2] = tested on: virulence factor pyocyanin production; settings: in cellulo; read-out: inhibition of virulence factor pyocyanin production IC50; cited from earlier work
[3] = tested on: production of signal molecules HHQ and PQS; settings: QS inhibitors targeting PqsA; read-out: IC50, reduction of production of signal molecules HHQ and PQS; cited from earlier work
[4] = tested on: P. aeruginosa pyocyanin production; assay: Pyocyanin assay; type: cell-based; settings: Pseudomonas aeruginosa, PA14, 16 h, read-out: IC50-value towards pyocyanin production, PA14 in PPGAS medium, 16 h
Procedure: Inhibition of P. aeruginosa pyocyanin production by compounds was determined photometrically as described before. In short, an overnight culture of PA14 in PPGAS medium was washed, diluted in medium to a start OD600 of 0.02, and incubated for 16 h (37° C., 200 rpm, relative humidity 75%) in the presence of test compounds. Then, cultures were extracted with chloroform and re-extracted with 0.2 M HCl. Protonated red colored pyocyanin was determined by measuring OD520 and normalizing to OD600.

[5] = Kinetic Turbidimetric Aqueous Solubility; type: physicochemical; settings: aqueous buffer, kinetic from dmso stock, PBS buffer, room temperature
Procedure: Kinetic Turbidimetric Aqueous Solubility at room temperature for 5 min. Test compound was diluted in PBS buffer to give a range of concentrations (typically 0.4, 2, 4, 20, 40, 100, and 200 μM, final DMSO concentration 2%) and incubated at room temperature for 5 min. Absorbance was measured at a wavelength of 620 nm and the solubility was estimated from the concentration of test compound that produces an increase in absorbance above the vehicle control (i.e., […]). Data was analyzed by fitting a four parameter sigmoidal function to the measured and normalized absorbances and AUC calculation providing access to Log S (decadic logarithm of the solubility).

[6] = Metabolic stability in mouse liver microsomes (MLM); type: in vitro ADME; settings: 1 μM compound, 0.5 mg/mL MLM, 1 mM NADPH, 37° C., read-out: half-life (t1/2) towards MLM
Procedure: For the evaluation of phase I metabolic stability, the compound (1 μM) was incubated with 0.5 mg/mL MLM (Corning) and 1 mM NADPH at 37° C. for 0, 5, 10, 15 and 30 min. The metabolic stability of Verapamil, Diphenhydramine and Benzydamine (1 μM each) were determined in parallel to confirm the enzymatic activity of the MLM. The incubation was stopped by addition of 2 volumes of acetonitrile containing internal standard (1 μM Leucine Enkephaline). Samples were centrifuged (15 min, 3,500 rpm). Concentration of the remaining test compound at the different time points was analyzed by HPLC-MS/MS and used to determine half-life (t1/2).

PqsR = biological target: T1, PqsR (Pseudomonas aeruginosa, UniProt Q9I4X0); assay: PqsR inverse agonistic activity, reporter gene assay in E. coli; type: cell-based
T1 construct: expressed in transfected cells; host or cells: Escherichia coli DH5a carrying pEAL08-2
Procedure: Inhibition of pqsR-dependent gene expression of test compounds was determined in an E. coli based-galactosidase reporter gene assay. Escherichia coli DH5a was transfected with pEAL08-2 plasmid encoding pqsR under control of promoter tac and β-galactosidase reporter gene lacZ under control of promoter pqsA. Antagonistic effects of compounds were evaluated in the presence of/in competition to 50 nM PQS. A positive control was used to ensure the reliability of individual assays. First, PQS was diluted in methanol and added to the wells of a glass coated 96-deep-well plate, and the solvent was evaporated. Then, compounds were added in 5 μL DMSO to final concentrations of 0.001-10 μM. Overnight cultures of E. coli DH5a×pEAL08-2 were diluted 1:100 in LB medium with ampicillin (50 μg/ml) and incubated at 37° C. with shaking until it reached an OD600 of 0.2. Finally, 995 μL of culture was added to each well and the β-galactosidase activity was determined by ortho-nitrophenyl-β-galactoside conversion in permeabilized cells after a 2.5 h incubation period (37° C., 180 rpm). OD600, OD420, and OD550 were measured using POLARstar Omega (BMG Labtech, Ortenberg, Germany), and the activity was expressed as ratio of the slope of B-galactosidase activity between basal control (no PQS) and solvent control. IC50 values of antagonists were determined by variation of the concentration of the test compounds.

T1 sequence (Q9I4X0 whole entry): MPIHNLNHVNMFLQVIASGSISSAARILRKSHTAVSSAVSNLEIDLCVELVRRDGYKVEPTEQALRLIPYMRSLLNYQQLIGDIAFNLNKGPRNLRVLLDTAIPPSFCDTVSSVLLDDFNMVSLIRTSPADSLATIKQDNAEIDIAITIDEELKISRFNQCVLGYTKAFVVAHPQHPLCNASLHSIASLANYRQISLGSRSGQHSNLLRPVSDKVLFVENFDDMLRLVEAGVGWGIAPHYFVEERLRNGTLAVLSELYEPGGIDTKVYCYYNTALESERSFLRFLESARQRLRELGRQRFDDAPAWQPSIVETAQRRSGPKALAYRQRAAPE

SMILES | reduction of HHQ production [1] [%] | reduction of PQS production [1] [%] | IC50 [2] [µM] | IC50 [3] [µM] | IC50 [4] [µM] | solubility at 5 min [5] [µM] | half-life at 1 μM [6] [h] | IC50 (PqsR) [µM]
CCCCCCCc1[nH]c2ccc([N+](=O)[O-])cc2c(=O)c1C(N)=O [2-heptyl-6-nitro-4-oxo-1,4-dihydroquinoline-3-carboxamide] | 54 | 37 | 2 | – | – | – | – | –
Nc1cccc(F)c1C(=O)O [Compound 6FABA] | – | – | – | ~100 | – | – | – | –
O=[N+]([O-])c1cc(-c2ncc(CNc3cc(Cl)nc(C(F)(F)F)c3)cn2)ccc1Cl [Compound 08] | – | – | – | – | 0.101 to 0.2 | > 10 | > 1 | –
O=[N+]([O-])c1cccc(-c2ncc(CNc3cc(Cl)nc(C(F)(F)F)c3)cn2)c1 [Compound 09] | – | – | – | – | 0.201 to 0.5 | > 10 | 0.517 to 1 | –
NC(=O)c1cccc(Nc2ccc3[nH]c(CSc4ccnc(C(F)(F)F)c4)nc3c2)c1 [Compound 36] | – | – | – | – | – | > 50 | 0.517 to 1 | 0.251 to 1
FC(F)c1cccc(Nc2ccc3[nH]c(CSc4ccnc(C(F)(F)F)c4)nc3c2)c1 [Compound 37] | – | – | – | – | 0.101 to 0.2 | > 10 | > 1 | ≤ 0.05
Fc1ccc(Nc2ccc3[nH]c(CSc4ccnc(C(F)(F)F)c4)nc3c2)c(F)c1 [Compound 45] | – | – | – | – | 0.101 to 0.2 | > 25 | > 1 | ≤ 0.05
Fc1cc(Nc2ccccc2)cc2nc(CSc3ccnc(C(F)(F)F)c3)[nH]c12 [Compound 56] | – | – | – | – | ≤ 0.1 | > 25 | – | ≤ 0.05
Cc1cc(Nc2ccccc2)cc2nc(CSc3ccnc(C(F)(F)F)c3)[nH]c12 [Compound 59] | – | – | – | – | 0.101 to 0.2 | > 10 | – | ≤ 0.05
Fc1cccc(Nc2ccc3[nH]c(CNc4ccnc(C(F)(F)F)c4)nc3c2)c1 [Compound 61] | – | – | – | – | ≤ 0.1 | ≥ 100 | – | ≤ 0.05
